Where two headings read alike, the source gives them in different places.
System: RSV A2
Experiment: RSV antiviral cytopathic effect (CPE) assay
Type: cell-based
Conditions: human respiratory syncytial virus, HEp-2, 120 h, HEp2 cells infected with RSV A2 (moi ~0.01), 5 days, MTT readout
Experimental: Compounds of the invention were tested for their antiviral activity against respiratory syncytial virus. Cytopathic effect (CPE) assays were performed essentially as described in the literature (see for example Watanabe et al, 1994, J. Virological Methods, 48:257). Serial dilutions of the test compounds were made in 96 well plates. HEp2 cells (1.0×10^4 cells/well) were infected with RSV at a low multiplicity of infection (e.g. RSV A2 at an moi of ˜0.01) and added to plates to assess antiviral activity. Uninfected HEp2 cells were used to assess compound cytotoxicity. Assays were incubated for 5 days at 37° C. in a 5% CO2 atmosphere. The extent of CPE was determined via metabolism of the vital dye 3-(4,5-dimethylthiaxol-2-yl)-2,5-diphenyltetrazolium bromide (MTT). MTT (1 mg/ml) was added to each well and plates incubated for 2 hours incubation at 37° C. Wells were aspirated, iso-propanol (200 μL) was added and absorbance values read at 540/650 nm. Compound concentrations that inhibited CPE by 50% (EC50) and developed cytotoxicity (CC50) were calculated using non-linear regression analysis.
Representative mean EC50 values obtained are also provided. In the inventors' experience, replicate EC50 values usually fall within three standard deviations of the mean.

[1] = read-out: Activity Range (RSV A2 EC50)
[2] = mean EC50, read-out: RSV A2 EC50

SMILES	EC50 [1]	EC50 [2]
Cc1ccc([C@@]23Cn4cccc4C(=O)N2CCN3C(=O)c2conc2C)cn1 [Compound 77A, (10aS)-1-[(3-methyl-1,2-oxazol-4-yl)carbonyl]-10a-(6-methylpyridin-3-yl)-2,3,10,10a-tetrahydro-1H,5H-imidazo[1,2-a]pyrrolo[1,2-d]pyrazin-5-one]	500 to 10000 nM	7300 nM
COc1ccc(C23Cn4cc(-c5nnnn5C)cc4C(=O)N2CCN3C(=O)c2conc2C)cc1 (stereo not shown) [Compound 145, 10a-(4-methoxyphenyl)-1-[(3-methyl-1,2-oxazol-4-yl)carbonyl]-7-(1-methyl-1H-tetrazol-5-yl)-2,3,10,10a-tetrahydro-1H,5H-imidazo[1,2-a]pyrrolo[1,2-d]pyrazin-5-one]	500 to 10000 nM	3700 nM
Cc1ccc(C23Cn4c(C)ccc4C(=O)N2CCN3C(=O)c2conc2C)cn1 (stereo not shown) [Compound 151]	< 49 nM	8.7 nM
Cc1ccc(C23Cn4cc(Br)cc4C(=O)N2CCN3C(=O)c2conc2C)nc1 (stereo not shown) [Compound 117]	500 to 10000 nM	880 nM
O=C(c1ccon1)N1CCN2C(=O)c3cccn3CC12c1ccc(Cl)cc1 (stereo not shown) [Compound 16]	500 to 10000 nM	980 nM
Cc1nocc1C(=O)N1CCN2C(=O)c3cccn3CC12c1ccc(=O)n(C)c1 (stereo not shown) [Compound 143, 1-[(3-methyl-1,2-oxazol-4-yl)carbonyl]-10a-(1-methyl-6-oxo-1,6-dihydropyridin-3-yl)-2,3,10,10a-tetrahydro-1H,5H-imidazo[1,2-a]pyrrolo[1,2-d]pyrazin-5-one]	500 to 10000 nM	750 nM
Cc1nocc1C(=O)N1CCN2C(=O)c3ccc(-c4cccnc4)n3CC12c1ccc(F)cc1 (stereo not shown) [Compound 97]	100 to 499 nM	460 nM
Cc1nocc1C(=O)N1CCN2C(=O)c3cccn3CC12c1ccc(N2CCCC2)cc1 (stereo not shown) [Compound 36, 1-[(3-methyl-1,2-oxazol-4-yl)carbonyl]-10a-[4-(pyrrolidin-1-yl)phenyl]-2,3,10,10a-tetrahydro-1H,5H-imidazo[1,2-a]pyrrolo[1,2-d]pyrazin-5-one]	100 to 499 nM	480 nM
Cc1nocc1C(=O)N1CCN2C(=O)c3cc(-c4cnn(C)c4)cn3CC12c1ccc(Cl)cc1 (stereo not shown) [Compound 31]	< 49 nM	7.6 nM
Cc1nocc1C(=O)N1CCN2C(=O)c3cccn3CC12c1ccc(O)cc1 (stereo not shown) [Compound 69]	100 to 499 nM	160 nM
COc1ccc(C23Cn4cc(N)cc4C(=O)N2CCN3C(=O)c2conc2C)cc1 (stereo not shown) [Compound 111, 7-amino-10a-(4-methoxyphenyl)-1-[(3-methyl-1,2-oxazol-4-yl)carbonyl]-2,3,10,10a-tetrahydro-1H,5H-imidazo[1,2-a]pyrrolo[1,2-d]pyrazin-5-one]	> 10000 nM	16000 nM
COc1ccc(C23Cn4cc(-c5ccnn5C)cc4C(=O)N2CCN3C(=O)c2conc2C)cc1 (stereo not shown) [Compound 87]	50 to 99 nM	500 nM
COc1ccc(C23Cn4cc(F)cc4C(=O)N2CCN3C(=O)c2conc2C)cc1 (stereo not shown) [Compound 65]	50 to 99 nM	66 nM
COc1ccc(C23Cn4nccc4C(=O)N2CCN3C(=O)c2conc2C)cc1 (stereo not shown) [Compound 157]	100 to 499 nM	360 nM
Cc1cc2n(n1)CC1(c3ccc(Cl)cc3)N(C(=O)NCCc3ccccc3)CCN1C2=O (stereo not shown) [Compound 41, 10a-(4-chlorophenyl)-7-methyl-5-oxo-N-(2-phenylethyl)-2,3,10,10a-tetrahydro-1H,5H-imidazo[1,2-a]pyrazolo[1,5-d]pyrazine-1-carboxamide]	> 10000 nM	–
Cc1nocc1C(=O)N1CCN2C(=O)c3cccn3CC12c1cccs1 (stereo not shown) [Compound 74]	100 to 499 nM	220 nM
Cc1cc2n(n1)CC1(c3ccc(Cl)cc3)N(C(=O)c3ccc(F)nc3)CCN1C2=O (stereo not shown) [Compound 45]	> 10000 nM	–
Cc1nocc1C(=O)N1CCN2C(=O)c3cc(CN(C)C)cn3CC12c1ccc(Cl)cc1 (stereo not shown) [Compound 27]	500 to 10000 nM	9500 nM
COc1ccc(C23Cn4cccc4C(=O)N2CCN3C(=O)c2cccnc2)cc1 (stereo not shown) [Compound 71]	> 10000 nM	11000 nM
Cc1nocc1C(=O)N1CCN2C(=O)c3cccn3CC12c1ccc(Cl)cc1 (stereo not shown) [Compound 4]	< 49 nM	19 nM
COc1ccc(C23Cn4cccc4C(=O)N2CCN3C(=O)c2conc2C(F)(F)F)cc1 (stereo not shown) [Compound 52]	< 49 nM	24 nM
Cc1nocc1C(=O)N1CCN2C(=O)c3ccc(CN4CCOCC4)n3CC12c1ccc(Cl)cc1 (stereo not shown) [Compound 25, 10a-(4-chlorophenyl)-1-[(3-methyl-1,2-oxazol-4-yl)carbonyl]-8-(morpholin-4-ylmethyl)-2,3,10,10a-tetrahydro-1H,5H-imidazo[1,2-a]pyrrolo[1,2-d]pyrazin-5-one]	50 to 99 nM	65 nM
COc1ccc(C23Cn4cccc4C(=O)N2CCN3C(=O)c2ccoc2)cc1 (stereo not shown) [Compound 54]	500 to 10000 nM	600 nM

SMILES	EC50 [1]	EC50 [2]
COc1ccc(C23Cn4cc(-c5cnn(C(C)C)c5)cc4C(=O)N2CCN3C(=O)c2conc2C)cc1 (stereo not shown) [Compound 88]	50 to 99 nM	65 nM
Cc1nocc1C(=O)N1CCN2C(=O)c3cccn3CC12C1CCCCC1 (stereo not shown) [Compound 19]	50 to 99 nM	65 nM
O=C1c2cccn2CC2(c3ccc(Cl)cc3)N1CCN2C(=O)C1CC1 (stereo not shown) [Compound 18]	500 to 10000 nM	4100 nM
Cc1cc2n(n1)CC1(c3ccc(Cl)cc3)N(C(=O)c3ccc(F)cc3)CCN1C2=O (stereo not shown) [Compound 42]	> 10000 nM	–
Cc1nocc1C(=O)N1CCN2C(=O)c3cccc(=O)n3CC12c1ccc(Cl)cc1 (stereo not shown) [Compound 39, 11a-(4-chlorophenyl)-1-[(3-methyl-1,2-oxazol-4-yl)carbonyl]-2,3,11,11a-tetrahydro-1H-imidazo[1,2-a]pyrido[1,2-d]pyrazine-5,9-dione]	< 49 nM	15 nM
Cc1cc(C23Cn4cccc4C(=O)N2CCN3C(=O)c2conc2C)ccn1 (stereo not shown) [Compound 119]	50 to 99 nM	96 nM
Cc1nocc1C(=O)N1CCN2C(=O)c3ccc(Cl)n3CC12c1ccc(F)cc1 (stereo not shown) [Compound 80]	< 49 nM	3.1 nM
Cc1nocc1C(=O)N1CCN2C(=O)c3cccn3CC12c1ccc(O)nc1 (stereo not shown) [Compound 142, 10a-(6-hydroxypyridin-3-yl)-1-[(3-methyl-1,2-oxazol-4-yl)carbonyl]-2,3,10,10a-tetrahydro-1H,5H-imidazo[1,2-a]pyrrolo[1,2-d]pyrazin-5-one]	500 to 10000 nM	6700 nM
COc1ccc(C23Cn4cccc4C(=O)N2CCN3C(=O)c2ccsc2)cc1 (stereo not shown) [Compound 137]	500 to 10000 nM	6600 nM
Cc1cc2n(n1)CC1(c3ccc(Cl)cc3)N(C(=O)NCc3ccccc3)CCN1C2=O (stereo not shown) [Compound 46]	> 10000 nM	–
Cc1nocc1C(=O)N1CCN2C(=O)c3cccc(=O)n3CC12c1ccc(F)cc1 (stereo not shown) [Compound 148]	< 49 nM	38 nM
Cc1ccc(C23Cn4cc(-c5cccnc5)cc4C(=O)N2CCN3C(=O)c2conc2C)nc1 (stereo not shown) [Compound 120]	50 to 99 nM	87 nM
Cc1nocc1C(=O)N1CCN2C(=O)c3ccc(-c4cnn(C)c4)n3CC12c1ccc(F)cc1 (stereo not shown) [Compound 96]	100 to 499 nM	150 nM
Cc1nocc1C(=O)N1CCN2C(=O)c3cccn3CC12c1ccc(C(F)(F)F)nc1 (stereo not shown) [Compound 105]	100 to 499 nM	130 nM
Cc1nocc1C(=O)N1CCN2C(=O)c3cc(-c4ccco4)nn3CC12c1ccc(Cl)cc1 (stereo not shown) [Compound 70]	< 49 nM	3.6 nM
Cc1ccc(C23Cn4cccc4C(=O)N2CCN3C(=O)c2conc2C)cn1 (stereo not shown) [Compound 77]	50 to 99 nM	56 nM
COc1ccc(C23Cn4cc(-c5cn(C)nc5C)cc4C(=O)N2CCN3C(=O)c2conc2C)cc1 (stereo not shown) [Compound 91]	100 to 499 nM	140 nM
COc1ccc(C23Cn4cc(-c5ccc(C(=O)O)cc5)cc4C(=O)N2CCN3C(=O)c2conc2C)cc1 (stereo not shown) [Compound 100]	500 to 10000 nM	8000 nM
Cc1nocc1C(=O)N1CCN2C(=O)c3cc(-c4cnn(C)c4)cn3CC12c1ccc(CO)cc1 (stereo not shown) [Compound 144]	50 to 99 nM	79 nM
Cc1ccc(C23Cn4nc(-c5ccccn5)cc4C(=O)N2CCN3C(=O)c2conc2C)cc1 (stereo not shown) [Compound 139]	50 to 99 nM	66 nM
COc1ccc(C23Cn4cc(-c5nnn(C)n5)cc4C(=O)N2CCN3C(=O)c2conc2C)cc1 (stereo not shown) [Compound 146, 10a-(4-methoxyphenyl)-1-[(3-methyl-1,2-oxazol-4-yl)carbonyl]-7-(2-methyl-2H-tetrazol-5-yl)-2,3,10,10a-tetrahydro-1H,5H-imidazo[1,2-a]pyrrolo[1,2-d]pyrazin-5-one]	< 49 nM	46 nM
Cc1nocc1C(=O)N1CCN2C(=O)c3cc(-c4cccnc4)cn3CC12c1ccc(CO)cc1 (stereo not shown) [Compound 95, 10a-[4-(hydroxymethyl)phenyl]-1-[(3-methyl-1,2-oxazol-4-yl)carbonyl]-7-(pyridin-3-yl)-2,3,10,10a-tetrahydro-1H,5H-imidazo[1,2-a]pyrrolo[1,2-d]pyrazin-5-one]	100 to 499 nM	160 nM
COc1ccc(C23Cn4cccc4C(=O)N2CCN3C(=O)c2ocnc2C)cc1 (stereo not shown) [Compound 55]	500 to 10000 nM	2500 nM
